Several values for one entry are separate records, joined by “and”; a condition that tells them apart may be missing. Equal entries are not always repeated.
Experiments:
Format in all cases: in vivo, human
[1] = test system: subjects with T2DM and renal impairment; assay: Phase 2a: mixed-meal tolerance test (MMTT) plasma glucose AUC; conditions: for MMTT plasma glucose AUC4 h, LS Mean % Change / MMTT plasma glucose AUC4 h, Difference in LS Mean % Change (vs Placebo) / Percent Change from Baseline in MMTT plasma glucose AUC4 h, Mean / Percent Change from Baseline in MMTT plasma glucose AUC4 h, Median: Day −5 to Day 32; for MMTT plasma glucose AUC4 h, LS Mean % Change: ANCOVA; for MMTT plasma glucose AUC4 h, LS Mean % Change / MMTT plasma glucose AUC4 h, Difference in LS Mean % Change (vs Placebo) / Percent Change from Baseline in MMTT plasma glucose AUC4 h, Mean / Percent Change from Baseline in MMTT plasma glucose AUC4 h, Median / MMTT plasma glucose AUC4 h, Day 32, Mean / MMTT plasma glucose AUC4 h, Day 32, Median: ITT
Experimental: Cotadutide was titrated from 50 μg up to 300 μg and administered once daily by subcutaneous (SC) injection over 32 days.
Cotadutide was administered at 50 μg once daily for 4 days, followed by 100 μg daily for 7 days, 200 μg daily for 7 days, and 300 μg daily for 14 days (n=20). Placebo was administered one daily for 32 days (n=20). Cotadutide and placebo were administered in the morning. Dosing commenced following predose baseline vital signs, blood tests (including HbA1c), an electrocardiogram (ECG), body weight measurement, and bioimpedance spectroscopy (BIS). Subjects then returned for daily dosing or remained overnight locally until Day 5, and thereafter, had visits at weekly intervals until a maintenance dose of 300 μg was established. Thus, Cotadutide or placebo was administered at the study site by study personal for the first four doses and on site on Days 5, 12, 19, and 32. At all other times, subjects preformed dosing at home.
The effect of Cotadutide titrated up to a dose level of 300 μg on glucose control vs placebo after 32 days of treatment was assessed by a standardized mixed-meal tolerance test (MMTT) to determine the percentage change in glucose from area under the concentration-time curve (AUC) from baseline (Day −5) to the end of 32 days of treatment.
Following a minimum 8-hour fast, the subject underwent an MMTT, which involved the consumption of a standardized liquid meal (Ensure Plus, a nutritional supplement containing the components of fat, carbohydrate, and protein, which make up a standard MMTT) within 15 minutes, and timed serial blood samples were obtained for measurement of glucose through 240 minutes after consumption of the standardized meal (with no additional food intake during this time). Blood was drawn within 15 minutes before consuming the standardized liquid meal (i.e., “0 minutes”), and at 15, 30, 45, 60, 90, 120, 180, and 240 minutes (±5 minutes) after consumption. Blood sampling occurred as close as possible to the specified times for the MMTT. At Day 32, the serial blood sampling begins 2.5 hours after Cotadutide or placebo administration.
Subjects who used a quick acting or pre-mixed form of insulin with breakfast received their usual/current dose of breakfast-time insulin with the Ensure Plus milkshake i.e., dose reduction of insulin was not required. Subjects who carbohydrate counted or varied insulin dose in relation to meal type were advised that the Ensure Plus milkshake contained approximately 44.4 g of carbohydrate, 10.8 g of fat, and 13.8 g of protein and to adjust their insulin dose on this basis. The timing of insulin administration in relation to the Ensure Plus milkshake consumption was in accordance with the usual regimen used by the subject, e.g., if a subject injected insulin 30 minutes before breakfast, they were to inject insulin 30 minutes before the Ensure Plus milkshake.
The investigators also considered whether a dose reduction in insulin and/or sulfonylurea or glitinide was required for this fasting assessment on Day 32.
The change in the mixed-meal tolerance test (MMTT) plasma glucose AUC from the baseline (Day −5) to end of 32 days of treatment was evaluated in the ITT population using an analysis of covariance (ANCOVA) model. The model included fixed effect of treatment and baseline AUC as a covariate. The difference of the percent change in glucose AUC between the two treatment arms was compared with a two-sided significance level of 0.10.

[2] = test system: subjects with T2DM and renal impairment; assay: Phase 2a: blood pressure and heart rate (ABPM and office-based)
Source text: After instruction, subjects set up and applied an ambulatory blood pressure monitoring (ABPM) device. The subjects were advised to undergo normal daily activities while wearing the cuff and to avoid any strenuous forms of activity, bathing, or showering while wearing the cuff. The subjects were advised to remain still during the measurement with the arm relaxed at heart level. During ABPM, systolic BP, diastolic BP, heart rate pressure, heart rate, and mean arterial pressure readings were recorded over a period of 24 hours.
Based on post-hoc analysis, ABPM measurements were as follows: mean change from baseline to Day 32: −1.15 mmHg vs 2.21 mmHg (systolic, Cotadutide vs Placebo) and 2.54 mmHg vs 1.84 mmHg (diastolic, Cotadutide vs Placebo). Increases in supine blood pressure from baseline were also observed after 32 days of treatment: 1.44 mmHg vs 8.69 mmHg (systolic, Cotadutide vs placebo) and 0.57 mmHg vs 3.40 mmHg (diastolic, Cotadutide vs placebo); however, these changes were also not clinically significant and were numerically greater in the placebo group.
Based on office-based measurement, increases in postural blood pressure difference were observed after 32 days of treatment: 8.9 mmHg vs 0 1 mmHg (systolic, Cotadutide vs placebo) and 0.8 mmHg vs 1 8 mmHg (diastolic, Cotadutide vs placebo); however, these changes were not clinically significant.
By Day 32, the LS mean change from baseline in pulse rate (office-based measure) was an increase of 14.13 bpm for subjects in the Cotadutide dose group and 3.14 bpm for subjects in the placebo dose group (p <0.001). […] Mean heart rate changes from baseline to Day 32 were numerically greater while asleep (13.06 bpm vs −2.28 bpm) compared to awake (10.78 bpm vs −0.80 bpm) for subjects on Cotadutide vs placebo, respectively.

[3] = test system: subjects with T2DM and renal impairment; assay: Phase 2a: total daily insulin dose adjustment
Experimental: The effect of Cotadutide on insulin dose adjustment was evaluated for subjects on ≥20 U/day insulin. […] The mean percent reduction in total daily insulin dose from baseline until the end of dosing was statistically significant compared to placebo, especially in the HbA1c<8.0% subgroup (Table 15).

[4] = office-based measurement, after 32 days

CCCCCCCCCCCCCCCC(=O)N[C@@H](CCC(=O)NCCCC[C@H](NC(=O)[C@H](CC(=O)O)NC(=O)[C@H](CO)NC(=O)[C@@H](NC(=O)[C@H](Cc1ccccc1)NC(=O)[C@@H](NC(=O)CNC(=O)[C@H](CCC(N)=O)NC(=O)[C@H](CO)NC(=O)[C@@H](N)Cc1c[nH]cn1)[C@@H](C)O)[C@@H](C)O)C(=O)N[C@@H](CO)C(=O)N[C@@H](CCC(=O)O)C(=O)N[C@@H](Cc1ccc(O)cc1)C(=O)N[C@@H](CC(C)C)C(=O)N[C@@H](CC(=O)O)C(=O)N[C@@H](CO)C(=O)N[C@@H](CCC(=O)O)C(=O)N[C@@H](CCCNC(=N)N)C(=O)N[C@@H](C)C(=O)N[C@@H](CCCNC(=N)N)C(=O)N[C@@H](CC(=O)O)C(=O)N[C@@H](Cc1ccccc1)C(=O)N[C@H](C(=O)N[C@@H](C)C(=O)N[C@@H](Cc1c[nH]c2ccccc12)C(=O)N[C@@H](CC(C)C)C(=O)N[C@@H](CCC(=O)O)C(=O)N[C@@H](C)C(=O)NCC(=O)NCC(=O)O)C(C)C)C(=O)O [Cotadutide]
MMTT plasma glucose AUC4 h, LS Mean % Change ([1]; Insulin Dose < 20 U/day): −27.16%
MMTT plasma glucose AUC4 h, LS Mean % Change ([1]; Insulin Dose ≥ 20 U/day): −25.313%
MMTT plasma glucose AUC4 h, LS Mean % Change ([1]; Total): −26.71% and −26.7%
MMTT plasma glucose AUC4 h, LS Mean % Change ([1]; Total, listed as MEDI0382): −26.71%
MMTT plasma glucose AUC4 h, LS Mean % Change ([1]; eGFR 30-44 mL/min/1.73 m^2): −27.59%
MMTT plasma glucose AUC4 h, LS Mean % Change ([1]; eGFR 45-59 mL/min/1.73 m^2): −27.95%
MMTT plasma glucose AUC4 h, Difference in LS Mean % Change (vs Placebo) ([1]; Insulin Dose < 20 U/day): −36.37%
Percent Change from Baseline in MMTT plasma glucose AUC4 h, Mean ([1]; Insulin Dose < 20 U/day): −31.99%
Percent Change from Baseline in MMTT plasma glucose AUC4 h, Median ([1]; Insulin Dose < 20 U/day): −36.99%
MMTT plasma glucose AUC4 h, Difference in LS Mean % Change (vs Placebo) ([1]; Insulin Dose ≥ 20 U/day): −25.751%
Percent Change from Baseline in MMTT plasma glucose AUC4 h, Mean ([1]; Insulin Dose ≥ 20 U/day): −25.00%
Percent Change from Baseline in MMTT plasma glucose AUC4 h, Median ([1]; Insulin Dose ≥ 20 U/day): −22.850%
MMTT plasma glucose AUC4 h, Difference in LS Mean % Change (vs Placebo) ([1]; Total): −30.38%
Percent Change from Baseline in MMTT plasma glucose AUC4 h, Mean ([1]; Total): −27.719%
Percent Change from Baseline in MMTT plasma glucose AUC4 h, Median ([1]; Total): −27.45%
MMTT plasma glucose AUC4 h, Difference in LS Mean % Change (vs Placebo) ([1]; eGFR 30-44 mL/min/1.73 m^2): −31.64%
Percent Change from Baseline in MMTT plasma glucose AUC4 h, Mean ([1]; eGFR 30-44 mL/min/1.73 m^2): −24.41%
Percent Change from Baseline in MMTT plasma glucose AUC4 h, Median ([1]; eGFR 30-44 mL/min/1.73 m^2): −22.90%
MMTT plasma glucose AUC4 h, Difference in LS Mean % Change (vs Placebo) ([1]; eGFR 45-59 mL/min/1.73 m^2): −32.87%
Percent Change from Baseline in MMTT plasma glucose AUC4 h, Mean ([1]; eGFR 45-59 mL/min/1.73 m^2): −29.83%
Percent Change from Baseline in MMTT plasma glucose AUC4 h, Median ([1]; eGFR 45-59 mL/min/1.73 m^2): −37.00%
MMTT plasma glucose AUC4 h, Day 32, Mean ([1]; Insulin Dose < 20 U/day): 594.85 mg·h/dL
MMTT plasma glucose AUC4 h, Day 32, Median ([1]; Insulin Dose < 20 U/day): 599.41 mg·h/dL
MMTT plasma glucose AUC4 h, Day 32, Mean ([1]; Insulin Dose ≥ 20 U/day): 679.23 mg·h/dL
MMTT plasma glucose AUC4 h, Day 32, Median ([1]; Insulin Dose ≥ 20 U/day): 700.08 mg·h/dL
MMTT plasma glucose AUC4 h, Day 32, Mean ([1]; Total): 646.42 mg·h/dL
MMTT plasma glucose AUC4 h, Day 32, Median ([1]; Total): 619.33 mg·h/dL
MMTT plasma glucose AUC4 h, Day 32, Mean ([1]; eGFR 30-44 mL/min/1.73 m^2): 618.21 mg·h/dL
MMTT plasma glucose AUC4 h, Day 32, Median ([1]; eGFR 30-44 mL/min/1.73 m^2): 700.10 mg·h/dL
MMTT plasma glucose AUC4 h, Day 32, Mean ([1]; eGFR 45-59 mL/min/1.73 m^2): 664.37 mg·h/dL
MMTT plasma glucose AUC4 h, Day 32, Median ([1]; eGFR 45-59 mL/min/1.73 m^2): 605.70 mg·h/dL
postprandial plasma glucose concentrations on Day 32 ([1]; pre-standardized liquid meal to 180 minutes post meal): lower than placebo
Mean heart rate change from baseline to Day 32, asleep ([2]; ABPM): 13.06 bpm
Mean heart rate change from baseline to Day 32, awake ([2]; ABPM): 10.78 bpm
LS mean change from baseline in pulse rate (office-based measure) ([2]; Day 32): 14.13 bpm
changes in blood pressure ([2]; after 32 days of treatment): no clinically or statistically significant changes
supine diastolic blood pressure, increase from baseline ([2]; after 32 days of treatment): 0.57 mmHg
supine systolic blood pressure, increase from baseline ([2]; after 32 days of treatment): 1.44 mmHg
changes in blood pressure ([2]; after 32 days of treatment, listed as cotadutide): no significant changes
Pulse rate increase ([2]; by day 32, P<0.001): 11 beats per minute
differences in heart rate from baseline ([2]; end of the study (Day 60)): no meaningful differences
increase in postural blood pressure difference, diastolic [2, 4]: 0.8 mmHg
increase in postural blood pressure difference, systolic [2, 4]: 8.9 mmHg
24-hour heart rate by ABPM, mean increase from baseline to Day 32 ([2]; post-hoc analysis): 11.85 bpm
ABPM diastolic blood pressure, mean change from baseline to Day 32 ([2]; post-hoc analysis): 2.54 mmHg
ABPM systolic blood pressure, mean change from baseline to Day 32 ([2]; post-hoc analysis): −1.15 mmHg
reduction in insulin dose ([3]; over 32 days, P=0.012): 35.2%
percentage reduction from baseline in total daily insulin dose at the end of treatment ([3]; participants with insulin dose of at least 20 U/day, Day −2 to end of treatment): −35.2%
